14 molecules from patent publication US5990122A, “Quinolone- and naphthyridonecarboxylic acid derivatives” (Bayer Aktiengesellschaft, priority 1994, dated 1999) can be followed below.

Type in all cases: cell-based
In data set [1] the test system is Bac. fragilis ES 25. The data set is described as follows: minimum inhibitory concentration (MIC), series dilution method on Iso-Sensitest agar. As to conditions: about 20 hours. As to the method: (§1) The minimum inhibitory concentrations (MIC) were determined by a series dilution method on Iso-Sensitest agar (Oxoid). For each test substance, a series of agar plates each comprising concentrations of the active compound decreasing by double dilution in each case was prepared. The agar plates were inoculated with a multipoint inoculator (Denley). Overnight cultures of the pathogens which had been diluted beforehand such that each inoculation point comprised about 10^4 colony-forming particles were used for the inoculation. The inoculation agar plates were incubated at 37° C. and the germ growth was read off after about 20 hours. The MIC value (μg/ml) indicated the lowest active compound concentration at which no growth was detectable with the naked eye.

The test system of data set [2] is Staph. aureus 133. The description is as above. As to conditions: 37° C., about 20 hours. As to the method: as §1
Data set [3] has as its system Ps. aeruginosa Walter. The description is as above. As to conditions: 37° C., about 20 hours. The protocol:
as §1

The test system of data set [4] is Staph. aureus ICB 25701. The data set is described as above. Conditions: about 20 hours. The protocol: as §1
Data set [5] concerns E. coli Neumann. The data set is described as above. Conditions: 37° C., about 20 hours. The protocol:
as §1

Data set [6] can be described thus: inhibition of DNA synthesis in cells from ovaries of the Chinese hamster (CHO-KI), genotoxic potential, fluorophotometric. Conditions: hamster, cho-k1 cells, measure of the genotoxic potential, read-out: ID50 (concentration at which DNA synthesis in CHO-KI cells is inhibited by 50%). The source says: (§2) The following Tables 1 and 2 show the minimum inhibitory concentrations as a measure of the antibacterial activity and the ID50 values as a measure of the genotoxic potential of a substance both for compounds according to the invention and for reference compounds from the prior art (EP 520 240). The compounds according to the invention are distinguished in particular by the fact that they have lower interactions with mammalian DNA compared with the compounds according to the prior art. The ID50 is understood as meaning the concentration of a substance at which DNA synthesis in cells from ovaries of the Chinese hamster (CHO-KI) is inhibited by 50%. This value is determined after incubation of the corresponding substances in decreasing dilution stages over defined periods of time. For this, the DNA synthesis in CHO-KI cells is determined in comparison with controls by means of fluorophotometric methods.

For data set [7], the system named is CHO-KI cells. The description is as above. Conditions: measure of the genotoxic potential.
Text: as §2

Where [8] appears, read: Bacteroides fragilis, ES25, 37° C., read-out: MIC.
The mark [9] stands for this setting: Staphylococcus aureus, read-out: MIC.
Where [10] appears, read: Pseudomonas aeruginosa, read-out: MIC.
Where [11] appears, read: Staphylococcus aureus, ICB25701, 37° C., read-out: MIC.
Where [12] appears, read: Escherichia coli, read-out: MIC.

≈ marks a conversion by molar mass, not a printed value. Like-named read-outs stand apart in the source and are kept apart here.

As a reminder, the MIC is the lowest concentration that inhibits growth of the organism. `CC1C=CC(N)C2CN(c3c(F)cc4c(=O)c(C(=O)O)cn(C5CC5)c4c3F)CC12` (centres unmarked) [Ref. 1, 7(4-amino-7-methyl-1,3,3a,4,7,7a-hexahydro-isoindol-2-y1)-1-cyclopropyl-6 8-difluoro-1,4-dihydro-4-oxo-3-quinolinecarboxylic acid, reference compound]: the MIC stood at 0.5 µg/mL (≈ 1.2 µM) in data set [1] (setting [8]); 0.015 µg/mL (≈ 0.0361 µM) in data set [2] (setting [9]); 0.5 µg/mL (≈ 1.2 µM) in data set [3] (setting [10]); 0.06 µg/mL (≈ 0.144 µM) in data set [4] (setting [11]); 0.015 µg/mL (≈ 0.0361 µM) in data set [5] (setting [12]).
For the molecule `COc1c(N2CC3C4CCC(N)(CC4)C3C2)c(F)cc2c(=O)c(C(=O)O)cn(C3CC3)c12` (centres unmarked) [Example 20, 7-(1-amino-4-azatricyclo[5.2.2.0^2,6]undec-4-yl)-1-cyclopropyl-6-fluoro-1,4-dihydro-8-methoxy-4-oxo-3-quinolinecarboxylic acid], the IC50 in data set [6] is 16 µg/mL (≈ 36.2 µM). The MIC worked out at 1 µg/mL (≈ 2.26 µM) in data set [1] (setting [8]); 0.015 µg/mL (≈ 0.034 µM) in data set [2] (setting [9]); 2 µg/mL (≈ 4.53 µM) in data set [3] (setting [10]); 0.125 µg/mL (≈ 0.283 µM) in data set [4] (setting [11]); 0.03 µg/mL (≈ 0.0679 µM) in data set [5] (setting [12]).
Consider `NC12CCC(CC1)C1CN(c3c(F)cc4c(=O)c(C(=O)O)cn(C5CC5)c4c3F)CC12` (centres unmarked) [Example 18, 7-(1-amino-4-azatricyclo[5.2.2.0^2,6]undec-4-yl)-1-cyclopropyl-6,8-difluoro-1,4-dihydro-4-oxo-3-quinolinecarboxylic acid], for which the IC50 in data set [6] is 1 µg/mL (≈ 2.33 µM). Besides, the MIC in data set [1] (setting [8]) turned out to be 1 µg/mL (≈ 2.33 µM); in data set [2] (setting [9]), 0.015 µg/mL (≈ 0.0349 µM); in data set [3] (setting [10]) it was 2 µg/mL (≈ 4.66 µM); in data set [4] (setting [11]), 0.25 µg/mL (≈ 0.582 µM); in data set [5] (setting [12]) it was 0.03 µg/mL (≈ 0.0699 µM).
For the molecule `NC12C=CC(CC1)C1CN(c3c(F)cc4c(=O)c(C(=O)O)cn(C5CC5)c4c3C(F)(F)F)CC12` (centres unmarked) [Example 6, 7-(1-Amino-4-aza-tricyclo[5.2.2.0^2,6]undec-8-en-4-yl)-1-cyclopropyl-6-fluoro-1,4-dihydro-4-oxo-8-trifluoromethyl-3-quinolinecarboxylic acid], the IC50 in data set [6] worked out at 10 µg/mL (≈ 20.9 µM). Further, the MIC in data set [1] (setting [8]) is 0.25 µg/mL (≈ 0.524 µM); in data set [2] (setting [9]), 0.015 µg/mL (≈ 0.0314 µM); in data set [3] (setting [10]), 4 µg/mL (≈ 8.38 µM); in data set [4] (setting [11]), 0.125 µg/mL (≈ 0.262 µM); in data set [5] (setting [12]) it was 0.06 µg/mL (≈ 0.126 µM).
Regarding `NC12C=CC(CC1)C1CN(c3c(F)cc4c(=O)c(C(=O)O)cn(C5CC5)c4c3Cl)CC12` (centres unmarked) [Example 3, 7-(1-Amino-4-aza-tricyclo[5.2.2.0^2,6]undec-8-en-4-yl)-8-chloro-1-cyclopropyl-6-fluoro-1,4-dihydro-4-oxo-3-quinoline-carboxylic acid], the IC50 in data set [6] amounted to 4 µg/mL (≈ 9.01 µM). Besides, the minimal inhibitory concentration (MIC) in data set [1] (setting [8]) was found to be 0.125 µg/mL (≈ 0.282 µM); in data set [2] (setting [9]) it was 0.015 µg/mL (≈ 0.0338 µM); in data set [3] (setting [10]) it was 0.5 µg/mL (≈ 1.13 µM); in data set [4] (setting [11]), 0.031 µg/mL (≈ 0.0698 µM); in data set [5] (setting [12]) it was 0.015 µg/mL (≈ 0.0338 µM).
On to `COc1c(N2CC3C(C)C=CC(N)C3C2)c(F)cc2c(=O)c(C(=O)O)cn(C3CC3)c12` (centres unmarked) [Ref. 2, 7(4-amino-7-methyl-1,3,3a,4,7,7a-hexahydro-isoindol-2-y1)-1-cyclopropyl-6 fluoro-1,4-dihydro-8-methoxy-4-oxo-3-quinolinecarboxylic acid, reference compound], for which the MIC in data set [1] (setting [8]) turned out to be 0.25 µg/mL (≈ 0.585 µM); in data set [2] (setting [9]) it was 0.015 µg/mL (≈ 0.0351 µM); in data set [3] (setting [10]) it was 1 µg/mL (≈ 2.34 µM); in data set [4] (setting [11]), 0.015 µg/mL (≈ 0.0351 µM); in data set [5] (setting [12]), 0.015 µg/mL (≈ 0.0351 µM).
For the molecule `CN1COc2c(N3CC4C5CCC(N)(CC5)C4C3)c(F)c(N)c3c(=O)c(C(=O)O)cn1c23` (centres unmarked) [Example 22, 8-amino-10-(1-amino-4-azatricyclo[5.2.2.0^2,6]undecan-4-yl)-9-fluoro-3-methyl-7-oxo-2,3-dihydro-7H-pyrido[1,2,3-d,e][1,3,4]benzoxadiazine-6-carboxylic acid], the “ID50 (concentration at which DNA synthesis in CHO-KI cells is inhibited by 50%)” value in data set [7] amounted to 8 µg/mL (≈ 18 µM). Further, the MIC was 4 µg/mL (≈ 9.02 µM) in data set [1] (37° C.); 0.031 µg/mL (≈ 0.0699 µM) in data set [2]; 8 µg/mL (≈ 18 µM) in data set [3]; 2 µg/mL (≈ 4.51 µM) in data set [4] (37° C.); 0.125 µg/mL (≈ 0.282 µM) in data set [5].
Take `CNC1C=CC(C)C2CN(c3c(F)cc4c(=O)c(C(=O)O)cn(C5CC5)c4c3Cl)CC12` (centres unmarked) [Ref. 4, 7(7-methyl-4-methylamino-1,3,3a,4,7,7a-hexahydro-isoindol-2-yl)-8-chloro- -cyclopropyl-6-fluoro-1,4-dihydro-4-oxo-3-quinolinecarboxylic acid, reference compound]: the IC50 in data set [6] is 0.1 µg/mL (≈ 0.224 µM). Also, the MIC in data set [1] (setting [8]) came to 0.5 µg/mL (≈ 1.12 µM); in data set [2] (setting [9]), 0.015 µg/mL (≈ 0.0336 µM); in data set [3] (setting [10]) it was 1 µg/mL (≈ 2.24 µM); in data set [5] (setting [12]) it was 0.03 µg/mL (≈ 0.0673 µM).
With `COc1c(N2CC3C4C=CC(N)(CC4)C3C2)c(F)cc2c(=O)c(C(=O)O)cn(C3CC3)c12` (centres unmarked) [Example 5, 7-(1-amino-4-aza-tricyclo[5.2.2.0^2,6]undec-8-en-4-yl)-1-cyclopropyl-6-fluoro-1,4-dihydro-8-methoxy-4-oxo-3-quinolinecarboxylic acid], the IC50 in data set [6] amounted to 8 µg/mL (≈ 18.2 µM). Besides, the MIC in data set [1] (setting [8]) came out at 0.125 µg/mL (≈ 0.284 µM); in data set [2] (setting [9]), 0.015 µg/mL (≈ 0.0341 µM); in data set [3] (setting [10]), 1 µg/mL (≈ 2.28 µM); in data set [4] (setting [11]), 0.031 µg/mL (≈ 0.0705 µM); in data set [5] (setting [12]), 0.015 µg/mL (≈ 0.0341 µM).
In the case of `NC12CCC(CC1)C1CN(c3c(F)cc4c(=O)c(C(=O)O)cn(C5CC5)c4c3C(F)(F)F)CC12` (centres unmarked) [Example 21, 7-(1-amino-4-azatricyclo[5.2.2.0^2,6]undec-4-yl)-1-cyclopropyl-6-fluoro-1,4-dihydro-4-oxo-8-trifluoromethyl-3-quinolinecarboxylic acid], the IC50 in data set [6] worked out at 10 µg/mL (≈ 20.9 µM). Moreover, the MIC in data set [1] (setting [8]) was 0.125 µg/mL (≈ 0.261 µM); in data set [2] (setting [9]), 0.015 µg/mL (≈ 0.0313 µM); in data set [3] (setting [10]), 4 µg/mL (≈ 8.34 µM); in data set [4] (setting [11]), 0.125 µg/mL (≈ 0.261 µM); in data set [5] (setting [12]), 0.015 µg/mL (≈ 0.0313 µM).
For `NC12C=CC(CC1)C1CN(c3cc4c(cc3F)c(=O)c(C(=O)O)cn4C3CC3)CC12` (centres unmarked) [Example 1, 7-(1-amino-4-aza-tricyclo[5.2.2.0^2,6]undec-8-en-4-yl)-1-cyclopropyl-6-fluoro-1,4-dihydro-4-oxo-3-quinolinecarboxylic acid], the IC50 in data set [6] was 24 µg/mL (≈ 58.6 µM). In addition, the minimal inhibitory concentration (MIC) turned out to be 16 µg/mL (≈ 39.1 µM) in data set [1] (setting [8]); 0.062 µg/mL (≈ 0.151 µM) in data set [2] (setting [9]); 8 µg/mL (≈ 19.5 µM) in data set [3] (setting [10]); 8 µg/mL (≈ 19.5 µM) in data set [4] (setting [11]); 0.125 µg/mL (≈ 0.305 µM) in data set [5] (setting [12]).
Take `NC12CCC(CC1)C1CN(c3c(F)cc4c(=O)c(C(=O)O)cn(C5CC5)c4c3Cl)CC12` (centres unmarked) [Example 19, 7-(1-amino-4-azatricyclo-[5.2.2.0^2,6]undec-4-yl)-8-chloro-1-cyclopropyl-6-fluoro-1,4-dihydro-4-oxo-3-quinolinecarboxylic acid]: in data set [6], the IC50 is 4 µg/mL (≈ 8.97 µM). The minimal inhibitory concentration (MIC) stood at 0.125 µg/mL (≈ 0.28 µM) in data set [1] (setting [8]); 0.015 µg/mL (≈ 0.0336 µM) in data set [2] (setting [9]); 1 µg/mL (≈ 2.24 µM) in data set [3] (setting [10]); 0.06 µg/mL (≈ 0.135 µM) in data set [4] (setting [11]); 0.03 µg/mL (≈ 0.0673 µM) in data set [5] (setting [12]).
Consider `CC1C=CC(N)C2CN(c3c(F)cc4c(=O)c(C(=O)O)cn(C5CC5)c4c3Cl)CC12` (centres unmarked) [Ref. 3, 7(4-amino-7-methyl-1,3,3a,4,7,7a-hexahydro-isoindol-2-yl)-8-chloro-1-cycl propyl-6-fluoro-1,4-dihydro-4-oxo-3-quinolinecarboxylic acid, reference compound], for which the minimal inhibitory concentration (MIC) came to 0.125 µg/mL (≈ 0.289 µM) in data set [1] (setting [8]); 0.015 µg/mL (≈ 0.0347 µM) in data set [2] (setting [9]); 0.5 µg/mL (≈ 1.16 µM) in data set [3] (setting [10]); 0.015 µg/mL (≈ 0.0347 µM) in data set [4] (setting [11]); 0.015 µg/mL (≈ 0.0347 µM) in data set [5] (setting [12]).
As to `NC12C=CC(CC1)C1CN(c3c(F)cc4c(=O)c(C(=O)O)cn(C5CC5)c4c3F)CC12` (centres unmarked) [Example 2], in data set [6], the IC50 turned out to be 1 µg/mL (≈ 2.34 µM). For the same molecule, the minimum inhibitory concentration (MIC) was 0.5 µg/mL (≈ 1.17 µM) in data set [1] (setting [8]); 0.015 µg/mL (≈ 0.0351 µM) in data set [2] (setting [9]); 0.5 µg/mL (≈ 1.17 µM) in data set [3] (setting [10]); 0.062 µg/mL (≈ 0.145 µM) in data set [4] (setting [11]); 0.015 µg/mL (≈ 0.0351 µM) in data set [5] (setting [12]).
